From patent US20130017537A1, “METHOD OF IN-VITRO IMMUNOASSAY” (BASF Beauty Care Solutions France S.A.S., priority 2011, published 2013)

Test system: type V collagen in the ECM
Assay: Influence of the lysis solution on the assay of type V collagen in the ECM
Format: cell-based, human
Details: for Ratio: Coll/DNA % (NH4OH = 100): repeat experiment, Table 3.2; for Ratio: Coll/DNA % (20 mM = 100.00): Table 3.3
Procedure: Thus, normal human fibroblasts obtained from abdominal biopsies were seeded in a 96-well plate and cultured in a defined medium (FGM) to 100% confluency.
After 48 hours of culture postconfluency at 37° C. under 0.5% CO2, the culture medium was collected.
The time of application of the lysis solution tested was 10 minutes at room temperature and with stirring.
The collagen V in the ECM was assayed directly on the ECM by using an anticollagen V antibody. A secondary antibody conjugated to europium was used with a detection reagent and the fluorescence was measured. (Delfia® kit—Perkin Elmer).
The experiment was repeated and the lysis solutions tested were as follows: • solution according to the invention NH4OH: 110 μl of an ammonium hydroxide solution at concentrations between 200 μM and 2 M. • Solution of monoethylamine at 20 Mm • Solution of diethylamine at 20 mM • Solution of triethylamine at 20 mM

## CCNCC [Diethylamine, diethylamine]
  Ratio: Coll/DNA % (NH4OH = 100): 17.33%

## CCN(CC)CC [Triethylamine, triethylamine]
  Ratio: Coll/DNA % (NH4OH = 100): 21.13%

## N [NH4OH, ammonium hydroxide]
NH4OH 200 μM
  Ratio: Coll/DNA % (20 mM = 100.00): 117.43%
NH4OH 2 mM
  Ratio: Coll/DNA % (20 mM = 100.00): 131.56%
NH4OH 20 mM
  Ratio: Coll/DNA % (20 mM = 100.00): 100.00%
NH4OH 200 mM
  Ratio: Coll/DNA % (20 mM = 100.00): 86.47%
NH4OH 2M
  Ratio: Coll/DNA % (20 mM = 100.00): 67.67%
  Ratio: Coll/DNA % (NH4OH = 100): 100%

## CCN [Monoethylamine, monoethylamine]
  Ratio: Coll/DNA % (NH4OH = 100): 23.78%
